# From patent publication US20030161866A1, “Novel pharmaceutical formulation to limit or delay surface absorption” (priority 2000, published 2003)
# Where two headings read alike, the source gives them in different places.
# Legend:
# [1] = Evaporation (weight loss) of DEET/IPA/clay samples under nitrogen; format: physicochemical; conditions: no added IPA, over 12 hours under nitrogen, relative to amount of DEET
# Description: The samples prepared above were held at room temperature in the hood under nitrogen over a 12 hour period. Evaporation rates were measured every hour.
# Samples of the HDTMA clay/DEET/IPA matrix were mixed as illustrated in Example 1. Volatile components of the matrix were evaporated using a constant flow of nitrogen over 12 hours in fume hood. Control samples of DEET with IPA only and DEET alone were subjected to the same conditions as the DEET with HDTMA treated clay.
# Weight loss of the samples over 12 hours was used as a measure of the extent of evaporation. Samples were weighed at the beginning of the experiment (time 0) and at hourly intervals thereafter. Reported values are the difference between the original weight of formulation and the weight at sampling time, expressed as a percentage of the amount of IPA added to each. For the controls without IPA, percent weight loss was calculated relative to the amount of DEET in the original sample.
# [2] = Visual (turbidity) solubility of DEET in IPA and water; format: physicochemical; conditions: aqueous with cosolvent or surfactant or cyclodextrin, thermodynamic from solid, read-out: limit of DEET solubility
# Description: Homogenous solutions of different concentrations of DEET with varying percentages of IPA in water were prepared and subsequently incorporated into the clay. Solutions of 30%, 40%, and 50% IPA in water were prepared. DEET was completely miscible with IPA, which was also completely miscible with water. The addition of DEET to the solvent mixture was therefore expected to produce a single homogenous phase within the limits of its solubility. Solutions were prepared consisting of the solvent systems and varying concentrations of DEET, from 12.5-200 mg/ml. DEET was added to the solvent in increments of 50 mg until the solution appeared turbid after vortexing for 5 seconds. Turbidity was used as a marker for saturation.
# Once various solvents were mixed with DEET, turbidity of the samples was used as a marker for saturation. All DEET spiking solutions were below saturation point.
# [3] = within two hours of administration; cited from earlier work
# [4] = 24 hours after administration of the last dose; cited from earlier work
smiles,measurement,setting,value
"CCN(CC)C(=O)c1cccc(C)c1 [DEET, N,N-diethyl-m-toluamide]",weight loss,[1],4%
same,solubility at 5 seconds,"[2]; 30% IPA in water, 30% IPA in water",115 mg/mL
same,solubility at 5 seconds,"[2]; 40% IPA in water, 40% IPA in water",200 mg/mL
same,solubility at 5 seconds,"[2]; 50% IPA in water, 50% IPA in water",200 mg/mL
same,dose administered topically that is absorbed,[3],Approximately 17%
same,absorbed dose recovered in the urine,[4],~90%
